Measurements: PubChem BioAssay AID1963974 (Molecular Pharmacology Branch, DTP, NCI, 2024)

Test system: 648629-189-R-J1-PDC spheroids with HUVEC/MSC, viability
Test: Anticancer human tumor 648629-189-R-J1-PDC patient-derived bladder carcinoma cell line growth inhibition [PI3K]
Settings: for IC50: curve of first compound; for viability, T/C: stronger effect = lower value
Method in brief: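 Tumor cells were combined with HUVEC and MSCs into spheroids, then dosed with PI3K-inhibitor combinations over half-log ranges capped near clinical Cmax or 10 microM.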
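Further: spheroids exposed to agents for seven days before reading.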
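Wherever viability, T/C is given: percent of vehicle control luminescence where 100% = DMSO treated spheroids.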

SMILES: Cn1cnc2c(F)c(Nc3ccc(Br)cc3Cl)c(C(=O)NOCCO)cc21 + Cc1nc(NC(=O)N2CCCC2C(N)=O)sc1-c1ccnc(C(C)(C)C(F)(F)F)c1
- IC50 (second compound 0.0316 µM): > 3 µM
- IC50 (second compound 0.1 µM): > 3 µM
- IC50 (second compound 0.316 µM): > 3 µM
- IC50 (second compound 1 µM): > 3 µM
- IC50 (second compound 3.16 µM): > 3 µM
- IC50 (second compound 10 µM): < 0.00949 µM
- viability, T/C (second compound 0.0316 µM, first compound 0.00949 µM): 94.3%
- viability, T/C (second compound 0.0316 µM, first compound 0.03 µM): 95.2%
- viability, T/C (second compound 0.0316 µM, first compound 0.0949 µM): 99%
- viability, T/C (second compound 0.0316 µM, first compound 0.3 µM): 90%
- viability, T/C (second compound 0.0316 µM, first compound 0.949 µM): 93%
- viability, T/C (second compound 0.0316 µM, first compound 3 µM): 70.5%
- viability, T/C (second compound 0.1 µM, first compound 0.00949 µM): 92.8%
- viability, T/C (second compound 0.1 µM, first compound 0.03 µM): 90.7%
- viability, T/C (second compound 0.1 µM, first compound 0.0949 µM): 98.1%
- viability, T/C (second compound 0.1 µM, first compound 0.3 µM): 95.4%
- viability, T/C (second compound 0.1 µM, first compound 0.949 µM): 86.2%
- viability, T/C (second compound 0.1 µM, first compound 3 µM): 75.8%
- viability, T/C (second compound 0.316 µM, first compound 0.00949 µM): 94.6%
- viability, T/C (second compound 0.316 µM, first compound 0.03 µM): 93.8%
- viability, T/C (second compound 0.316 µM, first compound 0.0949 µM): 77.2%
- viability, T/C (second compound 0.316 µM, first compound 0.3 µM): 85.2%
- viability, T/C (second compound 0.316 µM, first compound 0.949 µM): 81.7%
- viability, T/C (second compound 0.316 µM, first compound 3 µM): 72.4%
- viability, T/C (second compound 1 µM, first compound 0.00949 µM): 80.7%
- viability, T/C (second compound 1 µM, first compound 0.03 µM): 78.2%
- viability, T/C (second compound 1 µM, first compound 0.0949 µM): 71.3%
- viability, T/C (second compound 1 µM, first compound 0.3 µM): 75.5%
- viability, T/C (second compound 1 µM, first compound 0.949 µM): 72.9%
- viability, T/C (second compound 1 µM, first compound 3 µM): 64.2%
- viability, T/C (second compound 3.16 µM, first compound 0.00949 µM): 54.6%
- viability, T/C (second compound 3.16 µM, first compound 0.03 µM): 60.1%
- viability, T/C (second compound 3.16 µM, first compound 0.0949 µM): 59.2%
- viability, T/C (second compound 3.16 µM, first compound 0.3 µM): 52.1%
- viability, T/C (second compound 3.16 µM, first compound 0.949 µM): 57.1%
- viability, T/C (second compound 3.16 µM, first compound 3 µM): 52.7%
- viability, T/C (second compound 10 µM, first compound 0.00949 µM): 39.5%
- viability, T/C (second compound 10 µM, first compound 0.03 µM): 34.4%
- viability, T/C (second compound 10 µM, first compound 0.0949 µM): 34.7%
- viability, T/C (second compound 10 µM, first compound 0.3 µM): 40.2%
- viability, T/C (second compound 10 µM, first compound 0.949 µM): 44.8%
- viability, T/C (second compound 10 µM, first compound 3 µM): 38.1%
